Entries after “also recorded” stand apart in the source; their conditions may differ. Where two headings read alike, the source gives them in different places.
Assays:
hTRPA1 [1] = target: T1, hTRPA1 (Homo sapiens, UniProt O75762); assay: Membrane potential dye fluorescence assay (FLIPR/FLEXstation), activation of hTRPA1 in transfected HEK293 cells; format: cell-based
T1 construct: The full length hTRPA1 was amplified by PCR with Kpn1 and Xho1 restriction enzyme sites; expressed in transfected cells; also transient transfection
T1 sequence (O75762 whole entry): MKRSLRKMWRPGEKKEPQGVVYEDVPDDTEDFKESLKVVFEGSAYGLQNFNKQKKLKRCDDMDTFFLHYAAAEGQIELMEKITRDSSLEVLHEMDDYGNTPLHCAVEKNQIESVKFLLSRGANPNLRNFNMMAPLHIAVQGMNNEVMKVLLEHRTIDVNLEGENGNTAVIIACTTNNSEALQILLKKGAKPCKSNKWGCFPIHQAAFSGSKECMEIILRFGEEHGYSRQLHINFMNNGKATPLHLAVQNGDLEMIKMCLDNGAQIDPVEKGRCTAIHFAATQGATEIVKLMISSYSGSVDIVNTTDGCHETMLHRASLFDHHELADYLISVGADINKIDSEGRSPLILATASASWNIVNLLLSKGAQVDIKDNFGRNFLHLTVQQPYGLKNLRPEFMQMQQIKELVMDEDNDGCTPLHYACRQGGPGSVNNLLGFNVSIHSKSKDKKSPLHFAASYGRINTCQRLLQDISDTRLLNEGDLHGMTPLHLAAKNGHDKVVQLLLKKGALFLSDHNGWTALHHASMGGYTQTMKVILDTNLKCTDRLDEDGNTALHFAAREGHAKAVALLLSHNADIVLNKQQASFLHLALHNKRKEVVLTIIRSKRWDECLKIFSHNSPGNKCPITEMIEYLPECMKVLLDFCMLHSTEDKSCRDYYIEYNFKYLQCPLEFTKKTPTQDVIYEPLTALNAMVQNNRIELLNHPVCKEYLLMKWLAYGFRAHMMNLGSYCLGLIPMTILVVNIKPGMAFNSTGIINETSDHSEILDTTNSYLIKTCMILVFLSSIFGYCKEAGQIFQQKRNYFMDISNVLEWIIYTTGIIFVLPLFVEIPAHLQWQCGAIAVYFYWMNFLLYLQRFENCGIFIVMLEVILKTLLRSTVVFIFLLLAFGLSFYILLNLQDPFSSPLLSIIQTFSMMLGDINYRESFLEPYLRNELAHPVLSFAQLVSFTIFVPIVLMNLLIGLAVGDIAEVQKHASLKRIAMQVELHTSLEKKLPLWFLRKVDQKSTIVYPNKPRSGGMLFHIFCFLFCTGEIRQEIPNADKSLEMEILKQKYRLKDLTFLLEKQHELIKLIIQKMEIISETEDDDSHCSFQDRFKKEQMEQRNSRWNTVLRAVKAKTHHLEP
Procedure: Once expression of TRPA1 was confirmed, 100 μl of the Blue or Red FMP dye (Molecular Devices) was added to each well of plates seeded with the transiently transfected cells. The plate was then incubated in a 37° C./5% CO2 incubator for 1 hour. The plate was read in a FLEXStation microplate reader (Molecular Devices) with an excitation of 530 nm and an emission of 565 nm. The fluorescence was monitored for 3 minutes upon exposure of the cells to a TRPA1 activating agent (e.g., cinnamaldehyde).
(§1) Samples in a 384-well plate were evaluated in a 5 minute assay on the FLIPR-Tetra™ (Molecular Devices). The assay was performed on a FLIPR™ using the excitation 510-545 nm and emission 565-625 nm filter sets. TRPA1-Transfected HEK cells, 15,000/well, were seeded overnight on poly-D-lysine coated 384 well plates in 20 μl media. Membrane Potential Assay Dye Red (Molecular Devices), 20 μl/well, was added and the plates incubated for 1 hour in a 37° C. and 5% CO2 incubator. The plates were then removed from the incubator and equilibrated to room temperature for 15 minutes before reading on the FLIPR®. The plates were read on the FLIPR® for a total of 3 minutes. Baseline fluorescence was obtained on the FLIPR® for 10 seconds followed by addition (typically 10 μl) of each agonist by the FLIPR® and read for an additional 2 minutes and 50 seconds.

parental HEK293 cells = assay: Membrane potential dye fluorescence assay in parental (non-transfected) HEK293 cells; format: cell-based, human
hTRPM4B = target: T2, hTRPM4B (Homo sapiens, UniProt Q8TD43); assay: Membrane potential dye fluorescence assay, CHO cells expressing hTRPM4B; format: cell-based
T2 construct: expressed in transfected cells
T2 sequence (Q8TD43 whole entry): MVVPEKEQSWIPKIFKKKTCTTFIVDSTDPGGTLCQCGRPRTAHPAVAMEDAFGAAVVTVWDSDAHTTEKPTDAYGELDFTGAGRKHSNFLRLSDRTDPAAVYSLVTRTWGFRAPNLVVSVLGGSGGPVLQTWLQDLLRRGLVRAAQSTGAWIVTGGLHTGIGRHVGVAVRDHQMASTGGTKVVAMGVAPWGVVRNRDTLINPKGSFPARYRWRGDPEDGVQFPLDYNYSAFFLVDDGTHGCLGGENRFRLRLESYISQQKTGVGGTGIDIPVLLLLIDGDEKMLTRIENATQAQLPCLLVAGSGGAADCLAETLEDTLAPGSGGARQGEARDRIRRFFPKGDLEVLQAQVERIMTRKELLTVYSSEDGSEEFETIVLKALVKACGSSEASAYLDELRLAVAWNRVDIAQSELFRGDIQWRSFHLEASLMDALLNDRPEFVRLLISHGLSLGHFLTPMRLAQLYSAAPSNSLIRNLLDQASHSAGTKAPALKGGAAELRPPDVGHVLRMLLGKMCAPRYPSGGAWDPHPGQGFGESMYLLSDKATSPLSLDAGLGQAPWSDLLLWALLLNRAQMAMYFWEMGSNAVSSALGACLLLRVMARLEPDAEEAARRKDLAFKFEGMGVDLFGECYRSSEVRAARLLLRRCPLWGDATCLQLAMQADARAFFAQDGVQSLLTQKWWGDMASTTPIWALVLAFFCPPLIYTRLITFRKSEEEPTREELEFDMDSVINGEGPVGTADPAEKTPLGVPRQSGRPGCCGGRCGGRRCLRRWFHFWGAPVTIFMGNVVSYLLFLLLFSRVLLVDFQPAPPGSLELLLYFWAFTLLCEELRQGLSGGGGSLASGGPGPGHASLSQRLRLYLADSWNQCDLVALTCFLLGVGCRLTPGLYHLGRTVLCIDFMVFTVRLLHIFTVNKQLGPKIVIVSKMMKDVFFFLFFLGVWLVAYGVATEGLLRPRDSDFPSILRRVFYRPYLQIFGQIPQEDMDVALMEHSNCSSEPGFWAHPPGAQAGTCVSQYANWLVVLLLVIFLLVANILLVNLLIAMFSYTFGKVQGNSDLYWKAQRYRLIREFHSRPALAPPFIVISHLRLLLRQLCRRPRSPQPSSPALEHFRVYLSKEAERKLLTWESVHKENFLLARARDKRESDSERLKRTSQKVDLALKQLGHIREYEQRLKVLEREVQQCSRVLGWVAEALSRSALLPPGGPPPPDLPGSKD
Procedure: as §1
(§2) HEK293 cells were stably transfected with one of hTRPA1, hTRPV1 or hTRPM5. CHO cells were stably transfected with one of hTRPM4B or TRPM5. Parental HEK293 and CHO cells were also used as a negative control.

mice = assay: Taste aversion (lick) assay in mice; format: in vivo, mouse
Procedure: In this assay, the ability of identified lower alkyl phenols to evoke taste aversion in mice was measured. Mice were exposed to increasing concentrations of lower alkyl phenols.

hTRPM5 = target: T3, hTRPM5 (Homo sapiens, UniProt Q9NZQ8); assay: Membrane potential dye fluorescence assay, HEK293 or CHO cells expressing hTRPM5; format: cell-based
T3 construct: expressed in transfected cells
T3 sequence (Q9NZQ8 1-1165): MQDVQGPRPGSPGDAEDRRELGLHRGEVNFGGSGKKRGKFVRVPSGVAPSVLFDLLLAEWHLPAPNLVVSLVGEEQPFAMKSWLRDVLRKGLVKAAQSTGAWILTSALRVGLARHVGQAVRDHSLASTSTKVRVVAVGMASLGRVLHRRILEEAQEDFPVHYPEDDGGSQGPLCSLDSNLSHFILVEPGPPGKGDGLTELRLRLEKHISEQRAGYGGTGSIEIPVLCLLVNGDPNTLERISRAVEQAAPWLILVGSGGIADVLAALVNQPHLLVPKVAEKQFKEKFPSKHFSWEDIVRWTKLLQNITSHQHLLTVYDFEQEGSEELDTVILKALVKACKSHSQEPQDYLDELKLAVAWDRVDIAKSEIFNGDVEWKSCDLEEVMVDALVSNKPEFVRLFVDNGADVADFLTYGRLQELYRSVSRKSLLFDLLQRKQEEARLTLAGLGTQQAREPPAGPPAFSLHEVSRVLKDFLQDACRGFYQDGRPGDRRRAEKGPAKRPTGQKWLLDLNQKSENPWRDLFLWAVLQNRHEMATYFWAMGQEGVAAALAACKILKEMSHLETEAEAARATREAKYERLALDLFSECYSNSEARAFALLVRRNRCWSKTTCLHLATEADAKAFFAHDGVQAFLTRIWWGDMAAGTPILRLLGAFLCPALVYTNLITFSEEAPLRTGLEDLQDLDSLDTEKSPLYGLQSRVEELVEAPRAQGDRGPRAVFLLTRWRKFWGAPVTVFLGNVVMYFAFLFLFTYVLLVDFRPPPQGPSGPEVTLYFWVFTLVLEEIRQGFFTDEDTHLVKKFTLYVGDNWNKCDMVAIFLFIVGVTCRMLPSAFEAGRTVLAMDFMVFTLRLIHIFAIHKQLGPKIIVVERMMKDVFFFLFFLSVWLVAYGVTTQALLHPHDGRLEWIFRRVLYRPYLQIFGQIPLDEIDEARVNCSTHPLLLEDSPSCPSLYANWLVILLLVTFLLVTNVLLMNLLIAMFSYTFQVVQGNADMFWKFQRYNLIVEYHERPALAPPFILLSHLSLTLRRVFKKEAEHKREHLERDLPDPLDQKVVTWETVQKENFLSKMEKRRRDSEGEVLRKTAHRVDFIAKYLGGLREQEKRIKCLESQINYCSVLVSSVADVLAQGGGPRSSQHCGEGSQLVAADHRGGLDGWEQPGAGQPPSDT
Procedure: as §1, §2

hTRPV1 = target: T4, hTRPV1 (Homo sapiens, UniProt Q8NER1); assay: Membrane potential dye fluorescence assay, HEK293 cells expressing hTRPV1; format: cell-based
T4 construct: expressed in transfected cells
T4 sequence (Q8NER1 whole entry): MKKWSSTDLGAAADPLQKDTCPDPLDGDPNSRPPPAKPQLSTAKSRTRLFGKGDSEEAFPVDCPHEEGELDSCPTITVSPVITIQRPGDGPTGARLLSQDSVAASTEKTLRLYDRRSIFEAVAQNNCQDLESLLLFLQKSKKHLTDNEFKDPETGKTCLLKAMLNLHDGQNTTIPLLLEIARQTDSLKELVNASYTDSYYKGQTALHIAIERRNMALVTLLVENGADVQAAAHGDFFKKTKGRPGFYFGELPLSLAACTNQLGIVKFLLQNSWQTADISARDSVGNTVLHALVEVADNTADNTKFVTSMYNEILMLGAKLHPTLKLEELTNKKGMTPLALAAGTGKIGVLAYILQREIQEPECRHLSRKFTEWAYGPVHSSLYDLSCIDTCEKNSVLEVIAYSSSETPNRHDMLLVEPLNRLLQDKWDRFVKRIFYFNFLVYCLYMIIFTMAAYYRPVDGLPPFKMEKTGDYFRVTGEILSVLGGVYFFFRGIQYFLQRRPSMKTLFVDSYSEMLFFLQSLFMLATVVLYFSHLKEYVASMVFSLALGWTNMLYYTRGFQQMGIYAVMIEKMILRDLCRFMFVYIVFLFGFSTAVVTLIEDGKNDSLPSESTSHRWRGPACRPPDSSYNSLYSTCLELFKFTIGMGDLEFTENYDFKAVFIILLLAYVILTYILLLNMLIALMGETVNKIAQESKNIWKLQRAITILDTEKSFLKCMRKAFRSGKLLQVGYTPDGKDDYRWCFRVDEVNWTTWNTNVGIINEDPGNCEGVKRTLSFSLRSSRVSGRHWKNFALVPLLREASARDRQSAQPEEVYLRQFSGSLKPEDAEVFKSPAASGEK
Procedure: as §1, §2

hTRPA1 [2] = target: T1, hTRPA1; assay: Modulation of agonist-activated TRPA1 in CHO cells expressing hTRPA1 (membrane potential dye); format: cell-based
Procedure: as §1
(§3) Appropriate control experiments are performed and can easily be determined by the skilled artisan.
(§4) HEK293 cells and CHO cells expressing TRPA1 were subjected to the assay described in Example 2.

hTRPA1 [3] = target: T1, hTRPA1; assay: Modulation of agonist-activated TRPA1 in HEK293 cells expressing hTRPA1 (membrane potential dye); format: cell-based
Procedure: as §1, §3, §4

hTRPA1 [4] = target: T1, hTRPA1; assay: siRNA knockdown of hTRPA1 in hTRPA1 HEK293 cells, membrane potential dye response; format: cell-based; details: increasing concentrations
Procedure: HEK293 cells were transiently transfected with one of siRNA for hTRPA1, and one of Silencer pre-designed and validated siRNA (Ambion), GAPDH or negative siRNA control. 1×10^6 hTRPA1 stably transfected HEK 293 cells were plated in 35 mm dishes overnight. The next day 10 μM of each siRNA was transfected into these cells using siPORT Amine (Ambion) and incubated overnight. The following day, transfected cells were trypsinized and seeded into 384-well black, clear bottom, poly-D-lysine plates (Corning) at a density of 15,000 cells/well in a 20 μl volume and incubated in a 37° C./5% CO2 incubator overnight.
The cells were then loaded with membrane potential sensitive dye and subjected to the fluorescence assay described in Example 2.

[5] = HEK293 cells stably transfected with hTRPA1, FMP dye, FLIPR
[6] = hTRPA1 HEK293 cells, increase in fluorescence of membrane potential dye
[7] = CHO, increasing concentrations, FIG. 6
[8] = mice, increasing concentrations
[9] = increasing concentrations, FIG. 6
[10] = HEK293, increasing concentrations, FIG. 6

Cc1ccc(C)c(O)c1 [2,5-dimethylphenol]
EC50 (hTRPA1 [1]; [5]): 52 ± 29 µM
TRPA1 activation / agonist activity (in words) (hTRPA1 [1]; [6]): generated an increase in relative fluorescence
response of parental HEK293 cells (in words) (parental HEK293 cells; cells not expressing TRPA1): no response
response of cells expressing hTRPM4B (in words) (hTRPM4B; [7]): did not generate the same increase in relative fluorescence
taste aversion, licks/trial (in words) (mice; [8]): a decrease in licks/trial
response of cells expressing hTRPM5 (in words) (hTRPM5; [9]): did not generate the same increase in relative fluorescence
response of cells expressing hTRPV1 (in words) (hTRPV1; [10]): did not generate the same increase in relative fluorescence

Cc1cccc(C)c1O [2,6-dimethylphenol]
EC50 (hTRPA1 [1]; [5]): 66 ± 22 µM
TRPA1 activation / agonist activity (in words) (hTRPA1 [1]; [6]): generated an increase in relative fluorescence
response of parental HEK293 cells (in words) (parental HEK293 cells; cells not expressing TRPA1): no response
response of cells expressing hTRPM4B (in words) (hTRPM4B; [7]): did not generate the same increase in relative fluorescence
response of cells expressing hTRPM5 (in words) (hTRPM5; [9]): did not generate the same increase in relative fluorescence
response of cells expressing hTRPV1 (in words) (hTRPV1; [10]): did not generate the same increase in relative fluorescence

Cc1ccc(C(C)(C)C)c(O)c1 [2-tert-butyl-5-methylphenol]
EC50 (hTRPA1 [1]; [5]): 4 ± 2 µM
TRPA1 activation / agonist activity (in words) (hTRPA1 [1]; [6]): generated an increase in relative fluorescence
response of parental HEK293 cells (in words) (parental HEK293 cells; cells not expressing TRPA1): background fluorescence
response of cells expressing hTRPM4B (in words) (hTRPM4B; [7]): did not generate the same increase in relative fluorescence
response of cells expressing hTRPM5 (in words) (hTRPM5; [9]): did not generate the same increase in relative fluorescence
response of cells expressing hTRPV1 (in words) (hTRPV1; [10]): did not generate the same increase in relative fluorescence

Cc1ccc(O)cc1C [3,4-dimethylphenol]
response of parental HEK293 cells (in words) (parental HEK293 cells; cells not expressing TRPA1): no response

CC12CCC(CC1=O)C2(C)C (stereo not drawn) [Camphor]
TRPA1 activation / agonist activity (in words) (hTRPA1 [1]; [6]): has no agonist activity
TRPA1 activation / agonist activity (in words) (hTRPA1 [1]; hTRPA1 HEK293 cells, increase in fluorescence of membrane potential dye, listed as camphor): are TRPA1 agonists
inhibition of allyl isothiocyanate activated TRPA1 (in words) (hTRPA1 [2]): potentially inhibits
inhibition of cinnamaldehyde activated TRPA1 (in words) (hTRPA1 [2]): potentially inhibits
inhibition of thymol activated TRPA1 (in words) (hTRPA1 [2]): fully inhibits
inhibition of allyl isothiocyanate activated TRPA1 (in words) (hTRPA1 [3]; HEK293 cells): fully inhibited
inhibition of cinnamaldehyde activated TRPA1 (in words) (hTRPA1 [3]; HEK293 cells): fully inhibited
inhibition of thymol activated TRPA1 (in words) (hTRPA1 [3]; HEK293 cells): fully inhibited
inhibition of thymol activated TRPA1 (in words) (hTRPA1 [3]; HEK293 cells, listed as camphor): agonists of thymol activation of TRPA1

CC1(C)[C@@H]2C[C@H]1[C@@](C)(O)[C@@H](O)C2 [Pinanediol]
TRPA1 activation / agonist activity (in words) (hTRPA1 [1]; [6]): Neither isomer (+ shown) had a significant agonist activity until 10 mM
inhibition of thymol activated TRPA1 (in words) (hTRPA1 [3]; HEK293 cells): both inhibited TRPA1 activation at 1 mM

CC(C)c1cccc(C(C)C)c1O [Propofol]
EC50 (hTRPA1 [1]): 13 ± 6 µM
TRPA1 activation / agonist activity (in words) (hTRPA1 [1]): generated an increase in relative fluorescence
response of parental HEK293 cells (in words) (parental HEK293 cells): background fluorescence
response of cells expressing hTRPM4B (in words) (hTRPM4B): did not generate the same increase in relative fluorescence
taste aversion, licks/trial (in words) (mice; mouse, in vivo): a decrease in licks/trial
response of cells expressing hTRPM5 (in words) (hTRPM5): did not generate the same increase in relative fluorescence
response of cells expressing hTRPV1 (in words) (hTRPV1): did not generate the same increase in relative fluorescence

CC1(C(=O)O)CCC(C(=O)O)C1(C)C (stereo not drawn) [camphoric acid]
TRPA1 activation / agonist activity (in words) (hTRPA1 [1]; [6]): are TRPA1 agonists; also recorded: have agonist activity
inhibition of thymol activated TRPA1 (in words) (hTRPA1 [3]; HEK293 cells): do not act as agonists of thymol activation of TRPA1

CC12CCC(C(=O)C1=O)C2(C)C (stereo not drawn) [camphorquinone]
EC50 (hTRPA1 [1]; TRPA1 HEK293 cells, FIGS. 8C and 8D, read-out: EC50 of agonist response in TRPA1): ~300 µM
TRPA1 activation / agonist activity (in words) (hTRPA1 [1]; [6]): triggers an agonist response; also recorded: are TRPA1 agonists; also recorded: have agonist activity
inhibition of thymol activated TRPA1 (in words) (hTRPA1 [3]; HEK293 cells): do not act as agonists of thymol activation of TRPA1
effect on subsequent thymol and cinnamaldehyde responses (in words) (hTRPA1 [3]; TRPA1 transfected HEK293 cells, compound first, then agonist): desensitizes thymol and cinnamaldehyde responses

CC1(C)C2CCC1(CS(N)(=O)=O)C(=O)C2 (stereo not drawn) [camphorsufomamide]
TRPA1 activation / agonist activity (in words) (hTRPA1 [1]; [6]): have agonist activity
inhibition of thymol activated TRPA1 (in words) (hTRPA1 [3]; HEK293 cells): do not act as agonists of thymol activation of TRPA1

O=CC=Cc1ccccc1 [cinnamaldehyde]
EC50 (hTRPA1 [1]; [5]): 7 µM
response of parental HEK293 cells (in words) (parental HEK293 cells; cells not expressing TRPA1): no change in activation
fluorescence response of cells transfected with hTRPA1 siRNA versus GAPDH or negative siRNA control (in words) (hTRPA1 [4]): did not increase as much as

C=C(C)[C@H]1CC=C(C)CC1 [limonene]
TRPA1 activation / agonist activity (in words) (hTRPA1 [1]; [6]): are TRPA1 agonists; also recorded: have agonist activity
inhibition of thymol activated TRPA1 (in words) (hTRPA1 [3]; HEK293 cells): do not act as agonists of thymol activation of TRPA1

Cc1ccccc1O [o-Cresol]
EC50 (hTRPA1 [1]; [5]): 327 ± 132 µM
TRPA1 activation / agonist activity (in words) (hTRPA1 [1]; [6]): generated an increase in relative fluorescence
response of parental HEK293 cells (in words) (parental HEK293 cells; cells not expressing TRPA1): no response
response of cells expressing hTRPM4B (in words) (hTRPM4B; [7]): did not generate the same increase in relative fluorescence
taste aversion, licks/trial (in words) (mice; [8]): a decrease in licks/trial
response of cells expressing hTRPM5 (in words) (hTRPM5; [9]): did not generate the same increase in relative fluorescence
response of cells expressing hTRPV1 (in words) (hTRPV1; [10]): did not generate the same increase in relative fluorescence

Oc1ccccc1 [phenol]
TRPA1 activation / agonist activity (in words) (hTRPA1 [1]): did not generate the same increase in relative fluorescence
response of cells expressing hTRPM4B (in words) (hTRPM4B): did not generate the same increase in relative fluorescence
taste aversion, licks/trial (in words) (mice; mouse, in vivo): a decrease in licks/trial
response of cells expressing hTRPM5 (in words) (hTRPM5): did not generate the same increase in relative fluorescence
response of cells expressing hTRPV1 (in words) (hTRPV1): generated an increase in relative fluorescence
